Key:
Type in all cases: functional
[1] = target: Metabotropic glutamate receptor 2 (Homo sapiens) (UniProt Q14416); test: Level of potentiation of Metabotropic glutamate receptor 2 was determined by measuring the percentage activation of [35S]GTP-gamma-S, in the presence of 10 uM glutamate
[2] = target: Metabotropic glutamate receptor 2 (Homo sapiens) (UniProt Q14416); test: Binding potency against Metabotropic glutamate receptor 2 was determined by measuring the concentration required to activate 50% of [35S]GTP-gamma-S, in presence of 10 uM glutamate
[3] = target: Metabotropic glutamate receptor 3 (Homo sapiens) (UniProt Q14832); test: Binding potency against Metabotropic glutamate receptor 3 was determined by measuring the concentration required to activate 50% of [35S]GTP-gamma-S, in presence of glutamate; inactive
Chain of Metabotropic glutamate receptor 3 (Homo sapiens) (Q14832 23-879 limits assumed): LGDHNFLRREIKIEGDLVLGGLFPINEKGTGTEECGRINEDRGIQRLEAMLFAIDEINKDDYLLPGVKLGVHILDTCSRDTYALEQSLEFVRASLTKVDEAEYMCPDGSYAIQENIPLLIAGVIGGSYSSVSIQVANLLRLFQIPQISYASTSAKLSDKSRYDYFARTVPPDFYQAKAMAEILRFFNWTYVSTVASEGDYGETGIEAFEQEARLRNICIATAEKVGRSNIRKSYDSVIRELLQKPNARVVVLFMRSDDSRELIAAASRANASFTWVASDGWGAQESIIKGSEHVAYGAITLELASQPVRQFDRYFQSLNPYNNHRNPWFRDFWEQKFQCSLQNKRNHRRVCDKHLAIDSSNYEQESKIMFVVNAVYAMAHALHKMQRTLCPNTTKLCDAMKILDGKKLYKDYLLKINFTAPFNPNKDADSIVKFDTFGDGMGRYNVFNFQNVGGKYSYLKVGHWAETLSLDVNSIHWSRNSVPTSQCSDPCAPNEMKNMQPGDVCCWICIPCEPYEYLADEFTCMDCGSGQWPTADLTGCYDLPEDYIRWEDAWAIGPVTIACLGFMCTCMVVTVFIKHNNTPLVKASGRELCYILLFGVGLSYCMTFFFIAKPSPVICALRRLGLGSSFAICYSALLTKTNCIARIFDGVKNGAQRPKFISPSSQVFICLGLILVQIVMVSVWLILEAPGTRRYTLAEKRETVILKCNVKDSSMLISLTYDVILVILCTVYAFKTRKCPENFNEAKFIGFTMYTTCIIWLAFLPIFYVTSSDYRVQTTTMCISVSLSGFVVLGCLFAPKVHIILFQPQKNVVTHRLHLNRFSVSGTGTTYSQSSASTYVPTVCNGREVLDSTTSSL

Chain of Metabotropic glutamate receptor 2 (Homo sapiens) (Q14416 19-872 limits assumed): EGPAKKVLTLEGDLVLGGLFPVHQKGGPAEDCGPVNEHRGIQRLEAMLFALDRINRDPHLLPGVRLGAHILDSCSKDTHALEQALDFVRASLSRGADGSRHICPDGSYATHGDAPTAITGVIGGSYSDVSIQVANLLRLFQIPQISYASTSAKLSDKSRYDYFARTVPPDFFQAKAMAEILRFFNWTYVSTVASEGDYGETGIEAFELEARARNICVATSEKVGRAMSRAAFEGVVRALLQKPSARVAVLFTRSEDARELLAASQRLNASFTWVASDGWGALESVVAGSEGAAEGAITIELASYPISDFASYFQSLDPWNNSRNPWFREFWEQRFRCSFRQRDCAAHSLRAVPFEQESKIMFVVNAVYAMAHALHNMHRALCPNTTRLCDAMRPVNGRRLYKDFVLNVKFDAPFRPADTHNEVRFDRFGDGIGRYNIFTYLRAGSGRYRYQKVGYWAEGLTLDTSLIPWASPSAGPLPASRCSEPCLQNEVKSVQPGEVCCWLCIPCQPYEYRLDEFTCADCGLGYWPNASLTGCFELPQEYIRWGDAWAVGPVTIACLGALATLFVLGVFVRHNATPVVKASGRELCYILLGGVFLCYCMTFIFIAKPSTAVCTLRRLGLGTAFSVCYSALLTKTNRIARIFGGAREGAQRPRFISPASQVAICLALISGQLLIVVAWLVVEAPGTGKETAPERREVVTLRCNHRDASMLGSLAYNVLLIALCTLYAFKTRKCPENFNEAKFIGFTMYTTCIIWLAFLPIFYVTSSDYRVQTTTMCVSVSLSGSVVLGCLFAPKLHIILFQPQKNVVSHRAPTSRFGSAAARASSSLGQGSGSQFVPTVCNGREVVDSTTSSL

| Structure (SMILES) | Potentiation [1] [%] | ED50 [2] [nM] | Concentration [3] [µM] |
| --- | --- | --- | --- |
| CCCC(C)Oc1cccc(NCc2cnc3ccccc3c2)c1 (stereo unspecified) | 41 | 4300 | – |
| O=S(=O)(CC(F)(F)F)N(Cc1cncnc1)c1cccc(Oc2ccccc2C(F)(F)F)c1 | 73 | 970 | – |
| c1ccc(NCc2cncnc2)cc1 | 68 | 9600 | – |
| CCCC(C)Oc1cccc(N(Cc2cncnc2)S(=O)(=O)CC(F)(F)F)c1 (stereo unspecified) | 31 | 350 | 10 |
| COc1ccccc1Oc1ccc(N(Cc2cccnc2)S(=O)(=O)CC(F)(F)F)cc1 | 52 | 1700 | – |
| O=S(=O)(CC(F)(F)F)N(Cc1cncnc1)c1cccc(Oc2ccccc2)c1 | 52 | 660 | – |
| O=S(=O)(CC(F)(F)F)N(Cc1cncnc1)c1cccc(OC2CCCC2)c1 | 60 | 840 | – |
| O=S(=O)(CC(F)(F)F)N(Cc1cncnc1)c1cccc(COc2ccccc2)c1 | 51 | 1200 | – |
| O=S(=O)(CC(F)(F)F)N(Cc1cncnc1)c1cccc(Oc2ccccc2Br)c1 | 40 | 1100 | – |
| COc1ccccc1Oc1cccc(N(Cc2cncnc2)S(=O)(=O)CC(F)(F)F)c1 | 62 | 760 | – |
| O=S(=O)(CC(F)(F)F)N(Cc1cncnc1)c1cccc(Oc2ccccc2F)c1 | 46 | 860 | – |
| FC(F)(F)Oc1cccc(NCc2cncnc2)c1 | 26 | 19000 | – |

Continued, values first:

| Potentiation [1] [%] | ED50 [2] [nM] | Concentration [3] [µM] | Structure (SMILES) |
| --- | --- | --- | --- |
| 40 | 5200 | – | FC(F)(F)Oc1cccc(NCc2cnc3ccccc3c2)c1 |
| 53 | 630 | – | Cc1ccccc1Oc1cccc(N(Cc2cncnc2)S(=O)(=O)CC(F)(F)F)c1 |
| 18 | 1000 | – | FC(F)(F)c1ccccc1Cc1cccc(NCc2cnc3ccccc3c2)c1 |
| 39 | 810 | – | O=C(OCc1cccc(N(Cc2cncnc2)S(=O)(=O)CC(F)(F)F)c1)c1ccccc1 |
| 48 | 660 | – | CC(C)(C)[Si](C)(C)OCc1cccc(N(Cc2cncnc2)S(=O)(=O)CC(F)(F)F)c1 |
| 37 | 560 | – | O=S(=O)(CC(F)(F)F)N(Cc1cncnc1)c1ccc(Oc2ccccc2)cc1 |
| 43 | 540 | – | O=S(=O)(CC(F)(F)F)N(Cc1cncnc1)c1cccc(Cc2ccccc2)c1 |
| 31 | 710 | – | c1ccc(Cc2cccc(NCc3cncnc3)c2)cc1 |

Reference: ChEMBL document CHEMBL1137892, “Pyrimidine methyl anilines: selective potentiators for the metabotropic glutamate 2 receptor” (Bioorg Med Chem Lett, 2004)
